{
  "source": "patent US7772197B2",
  "about": "“1,3,5-triazines for treatment of viral diseases” (1,3,5-Triazines for Treatment of Viral Diseases, priority 2002, dated 2010)",
  "key": {"[1]": {"tested_on": "HIV-1 RTMC, with 67N, 70R, 215F and 219Q mutations", "assay": "Sensitivity of NRTI-resistant HIV strain RTMC, MT-2 cells", "format": "cell-based", "conditions": "Human immunodeficiency virus 1, MT2", "description": "(§1) 0.1 ml of a 3×10^5 cells/ml MT-2 cell suspension were seeded in 96-well plates at 3×10^4 cells/well. The compounds to be assayed were diluted in a separate 96-well at ten times (10×) the concentration needed for the screen. 22 μl of the 10× compounds was then added to the wells in triplicate except for six control wells, containing uninfected MT-2 cells alone (3 wells) and untreated HIV-infected MT-2 cells (3 wells). This was followed by the addition of HIV-1 at an MOI of 0.01, except for the three wells serving as the uninfected control. 0.1 ml of cRPMI was added to the uninfected well instead of virus. After the addition of virus, the 96-well plate was centrifuged at 1,200×g for two hours to enhance the adsorption of the virus by the MT-2 cells (see, e.g., O'Doherty, J. Virol. 74:10074-10080 (2000)). After the centrifugation step, the 96-well plate was then incubated in a 37° C. incubator containing 5% CO2 for three days. At the end of this time period the virus and cells were mixed by gentle pipetting followed by a 1 minute spin at 600×g to pellet the cells. The supernatant of each well was then serially diluted 1,000-fold into new 96-well plates to serve as inoculum for the next passage and assayed by ELISA for the amount of p24 produced. The next passage was performed as described above, except that the virus used to infect the cells was derived from the 1,000-fold dilution plate.\n(§2) To determine if there is resistance of HIV NRTI resistant strains to mutagenic nucleoside analogues, NRTI resistant strains were grown in the presence of 5-aza-dC to determine whether the EC50 for 5-aza-dC is different from the WT strain (HIV-1 LAI). […] Growth of HIV NRTI resistant strains in the presence of the appropriate concentration of NRTI was used as a positive control.\n(§3) Three HIV NRTI resistant strains (HIV-1 LAI-M184V, HIV-1 RTMDR1, with 74V, 41L, 106A and 215Y mutations, and HIV-1 RTMC, with 67N, 70R, 215F and 219Q mutations) were used to test the effectiveness of 5-aza-dC. […] Mutations include: M41L, E44D, A62V, K65R, D67N, T69DN, T69S_SS, K70R, L74V, V75I, F77L, Y115F, F116Y, V118I, Q151M, M184V, L210W, T215F and K219QE.\n(§4) The effectiveness of DHAdC was tested against wild-type HIV strains and NRTI resistant HIV strains as described in Example 2. The following strains were tested: HIV-1 LAI, wild-type; HIV-I LAI-M184V-M184V mutation with resistance to lamivudine (3TC); HIV-1 RTMDR1-74V, 41L, 106A and 215Y mutations with resistance to zidovudine, didanosine, nevirapine and other non-nucleoside reverse transcriptase inhibitors; and HIV-1 RTMC-67N, 70R, 215F and 219Q with resistance to zidovudine."}, "[2]": {"tested_on": "HIV-1 LAI-M184V", "assay": "Sensitivity of NRTI-resistant HIV strain M184V, MT-2 cells", "format": "cell-based", "conditions": "Human immunodeficiency virus 1, MT2", "description": "as §1, §2, §3, §4"}, "[3]": {"tested_on": "HIV-1 RTMDR1, with 74V, 41L, 106A and 215Y mutations", "assay": "Sensitivity of NRTI-resistant HIV strain RTMDR1, MT-2 cells", "format": "cell-based", "conditions": "Human immunodeficiency virus 1, MT2", "description": "as §1, §2\nThree HIV NRTI resistant strains (HIV-1 LAI-M184V, HIV-1 RTMDR1, with 74V, 41L, 106A and 215Y mutations, and HIV-1 RTMC, with 67N, 70R, 215F and 219Q mutations) were used to test the effectiveness of 5-aza-dC. […]"}, "[4]": {"tested_on": "HIV", "assay": "In vitro passaging assay of DHAdC", "format": "cell-based", "conditions": "100 nM, quadruplicate", "description": "as §1, with “22 μl of the 10× compounds was then added to the wells in triplicate except for six control wells, containing uninfected MT-2 cells alone (3 wells) and untreated HIV-infected MT-2 cells (3 wells).” left out, “plate. […]” for “plate.”"}, "[5]": {"tested_on": "hgprt gene in CHO (Chinese Hamster Ovary) cells", "assay": "hgprt assay, mutagenesis of cellular DNA, 6-thioguanine selection", "format": "cell-based", "conditions": "1 mM, data not shown", "description": "(Data not shown.) An hgprt assay was also performed to test mutagenesis of cellular DNA by DHAdC. The assay was performed on CHO (Chinese Hamster Ovary) cells and mutants were selected for resistance to 6-thioguanine (6-TG). EMS (ethyl methyl sulfonate), a known mutagen, was used as a positive control."}, "[6]": {"tested_on": "mitochondrial DNA", "assay": "Mitochondrial toxicity (lactate production, mitochondrial DNA)", "format": "cell-based", "conditions": "highest dose tested, 320 μM, data not shown", "description": "Mitochondrial toxicity is also a safety concern with nucleoside analogs. SN1212 was also analyzed for mitochondrial toxicity. […] (Data not shown.)"}, "[7]": {"assay": "Toxicology in SCID-Hu Thy/Liv mice", "format": "in vivo", "conditions": "up to 100 mg/kg/day subcutaneously, 21 days", "description": "After completion of this toxicology experiment, SN1212 was tested in HIV infected SCID-Hu mice. […] The discordance between viral infectivity and conventional surrogate markers of viral load, such as p24 or HIV RNA, is not surprising, as it has also been observed in vitro, and reflects the increased proportion of non-infectious viral particles in the presence of SN1212. It is also interesting to note that, of the treated groups, the immunologic profile of the SN1212 groups most closely resemble that of the uninfected group. This is compatible with the finding that infection with less “fit” viruses provides a relative clinical benefit by preserving cellular immunity."}},
  "data": [
    {"smiles": "NC1=NC(=O)N([C@H]2C[C@H](O)[C@@H](CO)O2)CN1", "note": "[DHAdC, 1-(2-Deoxy-β-D-ribofuranosyl)-4-amino-1,2,5,6-tetrahydro-1,3,5-triazin-2-one]", "values": [
      {"measurement": "EC50", "setting": "[1]", "result": 6, "unit": "µM"},
      {"measurement": "EC50", "setting": "[2]", "result": 6, "unit": "µM"},
      {"measurement": "EC50", "setting": "[3]", "result": 6, "unit": "µM"},
      {"measurement": "passage after which no infectious virus was recovered", "setting": "[4]", "result": 12, "unit": "passage"},
      {"measurement": "passage by which p24 fell permanently below the limit of detection (4 ng/ml)", "setting": "[4]", "result": "≤ 8", "unit": "passage"},
      {"measurement": "mutation frequency of cellular gene hgprt", "setting": "[5]", "result": "did not increase above background"},
      {"measurement": "mitochondrial toxicity (increase in lactate production or inhibition of mitochondrial DNA)", "setting": "[6]", "result": "does not demonstrate evidence of mitochondrial toxicity"},
      {"measurement": "toxicity", "setting": "[7]", "result": "without any significant toxicity"}
    ]}
  ]
}
